This note sets out measurements from patent US9579315B2, “Methods of treating obstructive lung diseases using bitter tastants” (UNIVERSITY OF MARYLAND, BALTIMORE, priority 2010, dated 2017).

Where two headings read alike, the source gives them in different places.

In test [1] the test system is human airway smooth muscle cells. The test can be described thus: [Ca2+]i increase in cultured primary human airway smooth muscle cells (Fluo-4 AM). It counts as cell-based. The note with it: for effect on saccharin-elicited [Ca2+]i increase: absence of extracellular calcium, FIG. 1d; for [Ca2+]i response in human ASM cells: 1.0 mM tastant, FIG. 1c. The method, then: (§1) Dose response curves for [Ca^2+]i and ex vivo tracheal ring studies were analyzed by iterative non-linear (sigmoidal) least squares fitting. Results from all studies were compared using paired or unpaired two-way t-tests (depending on study design), with P<0.05 considered significant. When multiple comparisons were sought, an ANOVA with post-hoc t-tests was utilized with a correction for multiple comparisons. Data are presented as mean±standard error.

Another test relates to intact mouse tracheas. Kind of test: Ex vivo relaxation of intact mouse tracheal rings (isometric myograph). Conditions: for relaxation of airways contracted by serotonin: 1.0 mM serotonin, FIG. 4b; for EC50: Mus musculus. The procedure:
Briefly, tracheal rings fitted between a fixed wire and a transducer-coupled wire were maintained in Krebs buffer at 37° C. with aeration from 95% O2, 5% CO2.
as §1

The test system of another test is isolated human ASM cells. The test can be described thus: Magnetic twisting cytometry, stiffness of isolated human ASM cells. It counts as cell-based. Conditions: for effect on saccharin-promoted relaxation of isolated ASM: 1 mM saccharin, U73122 1 μM, H89 100 nM, IbTx and ChTx 100 nM (FIG. 7b); for change in single-cell stiffness from baseline: isolated human ASM cells, FIG. 7a. The procedure: Dynamic changes in baseline cell stiffness were measured as an indicator of contraction and relaxation of isolated human ASM cells using magnetic twisting cytometry as described in detail previously^15. In brief, Arg-Gly-Asp coated ferromagnetic microbeads bound to adherent human ASM cells were magnetized horizontally and then twisted in a vertically aligned homogenous magnetic field that was varying sinusoidally in time. Sinusoidal twisting magnetic field caused both a rotation and a pivoting displacement of the bead: such forced bead motions are, in turn, impeded by internal stresses developed by the cell. Lateral bead displacements in response to the resulting oscillatory torque were detected with a spatial resolution of ˜5 nm, and the ratio of specific torque to bead displacements was computed and expressed as the cell stiffness in units of Pascal/nm (Pa/nm). For each individual ASM cell, baseline stiffness was measured for the first 60 sec, and after drug addition stiffness was measured continuously for the next 540 sec. […] For each cell, stiffness was normalized to its baseline stiffness prior to the agonist stimulation.

Another test has as its system ASM cells. Kind of test: Membrane potential of ASM cells (membrane potential-sensitive fluorescent dye). It counts as cell-based, human. Conditions: for change of membrane potential: 60 mM KCl, 1.0 μM histamine, 1 mM saccharin or chloroquine.
In test [2] the test system is human ASM cells. The note with it: 0.3 mM saccharin, 1.0 μM histamine.
The next test deals with mouse model of asthma. The test can be described thus: Airway resistance in control and ovalbumin-sensitized mice (flexiVent). It is filed as in vivo. The note with it: for decrease in airway resistance: aerosol during methacholine bronchoconstriction, quinine 150 μg, denatonium 200 μg. The procedure: Sensitization of 6-week old BALB/c mice was carried out by i.p. injections of […] ovalbumin in 200 μl alum, or alum alone (control) on days 0 and 14. Mice were then challenged with 1.0% aerosolized ovalbumin on days 19, 21 and 24. Twenty-four hours after the last challenge, mice were sedated, intubated and the flexiVent system (SCIREQ) was utilized for ventilation and measurement of airway resistance as previously described^40. Ventilation was at 150 breaths/min with a tidal volume of 240 μl and positive end expiratory pressure of 2.5 cm H2O. After stabilization, mice were challenged with doses of aerosolized methacholine (2.0, 4.0, 8.0 and 16 mg/ml in the nebulizer) until the sustained airway resistance became ˜5-fold greater than baseline. Three minutes after the last […] inhalation, the bitter tastants quinine (150 μg) or denatonium (200 μg), or the β-agonist albuterol (3.0 μg) were administered by aerosol over 10 sec. Resistance measurements (Raw, cm H2O/ml/sec) were taken every 30 sec throughout the experiment.

Another test has as its system H292 cells. The test can be described thus: [Ca2+]i-stimulated dose-response in H292 cells. It is filed as cell-based, human. Conditions: for EC50: Homo sapiens. The method, then:
(§2) In one example, cells are grown in multi-well dishes, loaded with a fluorescence-based calcium indicator dye, and test compounds are added with subsequent monitoring of the change in fluorescence indicative of a change in intracellular calcium [Ca^2+]i release. Test compounds can include, e.g., those with structural similarities to the known bitter taste receptor agonists or antagonists.
(§3) If appropriate, airway cells can also be tested using them within tracheal rings, as described herein and as is well-known in the art.

Another test has as its system BEAS2B cells. The test can be described thus: [Ca2+]i-stimulated dose-response in BEAS2B cells. It is filed as cell-based, human. The procedure: as §2, §3
In test [3] the test system is human ASM cells. The test can be described thus: PKA-mediated VASP phosphorylation, Western blot in human ASM cells. Conditions: 1.0 mM chloroquine or saccharin, 10 μM forskolin. It is filed as cell-based. On the technique in general: A western blot detects proteins with antibodies after separation by electrophoresis.
Protocol: Primary human ASM cells were obtained from a commercial source (Clonetics) and maintained as described^31, with experiments performed using cells at passages 3-8. These cells consisted of >95% airway smooth muscle as previously ascertained^31. For detecting changes in [Ca^2+]i attached cells in 96-well plates (80,000 cells/well) were loaded with Fluo-4 AM (BD Biosciences) with probenecid for one hour at 37° C. Receptor agonists were added at the indicated concentrations at 37° C. by an automated pipetting system in triplicate and the 525 nm signals were generated by excitation at 485 nm using a Flex Station II (Molecular Devices). Data was acquired every 1.5 sec for 60 sec. Unless otherwise stated, studies were performed in media containing 1.5 mM calcium. In some studies, ASM were transfected with T2R10 siRNA (Invitrogen) or a scrambled-sequence siRNA control by electroporation (Nucleofector, Lonza) using 4×10^6 cells and 4 μg of siRNA. Twenty-four hours later cells were transferred to the 96-well plates for the [Ca^2+]i assay. […] Samples were acetylated and cAMP measured by a highly sensitive ^125I-cAMP based radioimmunoassay as previously described^32. […] The effects of bitter tastants on membrane potential of whole ASM cells was measured using a membrane potential-sensitive fluorescent dye (Molecular Devices) as described^19 in a 96 well plate format with 50,000 cells/well. […]

As to `NCCOB(c1ccccc1)c1ccccc1` [2APB], the “effect on saccharin-elicited [Ca2+]i increase” value (“effect … [Ca2+]i increase” below) in [1] is “partially inhibited”.

As for `O=C1OC2(c3ccccc31)c1ccc(O)c(O)c1Oc1c2ccc(O)c1O` [gallein], the “effect … [Ca2+]i increase” value in test [1] was “ablated”.

With `COc1ccc2c(c1)c(CC(=O)O)c(C)n2C(=O)c1ccc(Cl)cc1` [indomethacin], in the test with intact mouse tracheas, the “effect on bitter tastant-mediated airway relaxation” value is “not altered”.

Consider `COc1ccc2c(c1)CC[C@@H]1[C@@H]2CC[C@]2(C)[C@@H](NCCCCCCN3C(=O)C=CC3=O)CC[C@@H]12` [U73122], for which the “effect on saccharin-promoted relaxation of isolated ASM” value (“effect … of isolated ASM” for short) in the test with isolated human ASM cells is recorded as “eliminated”. In addition, in test [1], the “effect … [Ca2+]i increase” value was “ablated”.

For the compound `OC[C@H]1O[C@H](O[C@]2(CCl)O[C@H](CCl)[C@@H](O)[C@@H]2O)[C@H](O)[C@@H](O)[C@H]1Cl` [sucralose], the “[Ca2+]i response in human ASM cells” value in test [1] was “no response”.

Turning to `COC(=O)[C@@H](N)CCCNC(=N)N[N+](=O)[O-]` [L-NAME], the “effect on bitter tastant-mediated airway relaxation” value in the test with intact mouse tracheas is reported as “not altered”.

As for `NCCc1c[nH]cn1` [histamine], in the test with ASM cells, the “change of membrane potential” value is reported as “membrane depolarization”. For the same compound, the “change in single-cell stiffness from baseline” value (shortened to “change in single-cell stiffness”) with isolated human ASM cells was “contraction”. The “spatial pattern of [Ca2+]i response” value in the test on human ASM cells [2] is “rapid rise in [Ca^2+]i throughout the cell”.

Regarding `C[C@H](NC(=NCC(=O)O)Nc1ccc(C#N)cc1)c1ccccc1` [SC45647], the “[Ca2+]i response in human ASM cells” value in test [1] is on record as “no response”.

On to `[Cl-].[K+]` [KCl], for which the “change of membrane potential” value in the test with ASM cells is “membrane depolarization”.

Take `COC(=O)[C@@H]1[C@H]2C[C@H]3c4[nH]c5ccccc5c4CCN3C[C@@H]2CC[C@@H]1O` [yohimbine]: in test [1], the “[Ca2+]i response in human ASM cells” value is “[Ca^2+]i responses”.

As for `CC(C)NCC(O)c1ccc(O)c(O)c1` (stereo not drawn) [isoproterenol], the “change in single-cell stiffness” value in the test on isolated human ASM cells is “relaxation”. Further, the “relaxation after chloroquine exposure, washout and acetylcholine re-challenge” value in the test with intact mouse tracheas (maximal concentration of isoproterenol (30 μM)) was found to be 29±4.3%. Further, the “maximal relaxation response, loss of active contraction / reduction in active tension” value with intact mouse tracheas (tracheas contracted with 1.0 mM acetylcholine) is reported as 30±9.2%.

“iberiotoxin (QFTDVDCSVSKECWSVCKDLFGVDRGKCMGKKCRCYQ; UniProt P24663 1-37, looked up) [specific BKCa channel antagonist]”: the “effect on bitter tastant-promoted membrane hyperpolarization” value with ASM cells (100 nM iberiotoxin preincubation) is given as “completely inhibited”. In addition, in the test on isolated human ASM cells, the “effect … of isolated ASM” value was “ablated”. The “effect on chloroquine-promoted relaxation in the isolated mouse airway” value with intact mouse tracheas (1 mM chloroquine, 100 nM iberiotoxin pretreatment) is on record as “attenuated”.

With `C=C[C@H]1C[N@@]2CC[C@H]1C[C@H]2[C@H](O)c1ccnc2ccc(OC)cc12` [quinine], the results for the “decrease in airway resistance” value with mouse model of asthma (normal mice) and in the test with mouse model of asthma (ovalbumin-sensitized mice) were 53±2.96% and 50±8%, respectively. Moreover, the efficacy in the test with H292 cells (H292 cells) is 133,201 fluorescence units. In the test on H292 cells (NCI-H292, H292 cells, read-out: potency, [Ca2+]i-stimulated dose-response curve), the EC50 is 703 µM. Besides, the “[Ca2+]i response in human ASM cells” value in test [1] is “[Ca^2+]i responses”. Further, in the test on intact mouse tracheas, the “relaxation of airways contracted by serotonin” value is listed as “marked relaxation”.

Consider charybdotoxin, for which the “effect … of isolated ASM” value with isolated human ASM cells is given as “ablated”.

Turning to `COc1cc2c(c(OC)c1OC)-c1ccc(OC)c(=O)cc1[C@@H](NC(C)=O)CC2` [colchicine], the “[Ca2+]i response in human ASM cells” value in test [1] is “relatively low response”.

For `O=S(=O)(NCCNC/C=C/c1ccc(Br)cc1)c1cccc2cnccc12` [H89], the “effect … of isolated ASM” value in the test with isolated human ASM cells is recorded as “not blocked”.

In the case of `CCN(CC)CCCC(C)Nc1ccnc2cc(Cl)ccc12` (stereo not drawn) [chloroquine], the “change of membrane potential” value in the test with ASM cells is given as “membrane hyperpolarization”. Besides, the “change in single-cell stiffness” value in the test with isolated human ASM cells is on record as “resulted in ASM relaxation”. Further, the efficacy was 37,136 fluorescence units in the test with H292 cells (H292 cells) and 13,995 fluorescence units with BEAS2B cells. Besides, the EC50 with H292 cells (NCI-H292, read-out: potency, [Ca2+]i-stimulated dose-response curve) came out at 74 µM; in the test with BEAS2B cells (Homo sapiens, BEAS-2B, read-out: potency, [Ca2+]i-stimulated dose-response curve), 90 µM; in test [1] (Homo sapiens, cultured ASM cells, FIG. 1a, read-out: EC50 for [Ca2+]i release), 70 ± 10 µM; in [1] (human airway smooth muscle cells, FIG. 14, read-out: potency, [Ca2+]i dose-response curve), 70 µM; with intact mouse tracheas (read-out: EC50 for relaxation, contraction stimulated by acetylcholine), 93 ± 4.3 µM; in the test on intact mouse tracheas (read-out: EC50 for relaxation, contraction stimulated by serotonin), 110 ± 32 µM. For the same compound, the “[Ca2+]i response in human ASM cells” value in test [1] is “evoked increased [Ca^2+]i”. For the same compound, in test [1] (human airway smooth muscle cells, FIG. 14), the “efficacy, net change in fluorescence units” value is 84,317 fluorescence units. In addition, the “relaxation of airways contracted by serotonin” value with intact mouse tracheas is reported as “marked relaxation”. Besides, in the test on intact mouse tracheas (submaximal dose of chloroquine (200 μM), 1.0 mM acetylcholine), the “relaxation of acetylcholine-mediated constriction” value is ~67%.

In the case of `CC(=O)OC(C)C[N+](C)(C)C` (stereo not drawn) [methacholine], the results for the “concentration of inhaled methacholine required to increase baseline airway resistance by 5-fold” value in the test on mouse model of asthma (non-sensitized mice) and with mouse model of asthma (ovalbumin-sensitized mice) were 16 mg/mL and 8 mg/mL, respectively.

For the compound `COc1cccc2c1cc([N+](=O)[O-])c1c(C(=O)O)cc3c(c12)OCO3` [aristocholic acid], in test [1], the “[Ca2+]i response in human ASM cells” value was “[Ca^2+]i responses”.

Take `CC[N+](CC)(CC(=O)Nc1c(C)cccc1C)Cc1ccccc1` [denatonium]: the “decrease in airway resistance” value in the test with mouse model of asthma (normal mice) was found to be 44±6%; in the test with mouse model of asthma (ovalbumin-sensitized mice), 57±4%. In addition, the “[Ca2+]i response in human ASM cells” value in test [1] was “evoked increased [Ca^2+]i”.

As for `OCc1ccccc1O[C@@H]1O[C@H](CO)[C@@H](O)[C@H](O)[C@H]1O` [salicin], the “[Ca2+]i response in human ASM cells” value in test [1] is “no response”.

Regarding `O=C1NS(=O)(=O)c2ccccc21` [saccharin], in the test with isolated human ASM cells, the “change in single-cell stiffness” value is listed as “resulted in ASM relaxation”. For the same compound, the “[Ca2+]i response in human ASM cells” value in test [1] was “evoked increased [Ca^2+]i”. Also, in the test on human ASM cells [3], the “PKA-mediated VASP phosphorylation” value is “Neither chloroquine nor saccharin promoted VASP phosphorylation”.

For `C/C=C(/C)C(=O)O[C@H]1C(C)=C2[C@H]([C@@H]1OC(=O)CCCCCCC)[C@@](C)(OC(C)=O)C[C@H](OC(=O)CCC)[C@@]1(O)[C@H]2OC(=O)[C@@]1(C)O` [Thapsigargin, thapsigargin], the “effect on chloroquine and other bitter tastant-mediated [Ca2+]i stimulation” value in [1] (10 μM thapsigargin pre-incubation 30 min) is “blocked”. The “effect on chloroquine-mediated relaxation of intact airway rings” value in the test on intact mouse tracheas (10 μM thapsigargin pre-incubation, chloroquine 3.0 mM) is “blocked”.
